Key:
Assay type in all cases: cell-based
[1] = test system: production of IL-6 by dendritic cells derived from monocytes; experiment: Inhibition of IL-6 production by monocyte-derived dendritic cells stimulated with C. acnes membranes; settings: Homo sapiens, Dendritic cell; C. acnes phylotype IA1 membranes, 24 hours stimulation; dexamethasone 300 ng/ml, myrtle extract 10 μg/ml, Trip extract 25 μg/ml, combination 10 and 25 μg/ml; mean of 3 experiments
Description: (§1) The experiments were performed on co-cultures of immature dendritic cells derived from monocytes, at a final concentration of 1.10^5 cells/ml/well and biofilms or membranes of C. acnes of phylotype IA1 . The monocytes are purified from human blood by negative selection (The EasySep™ Human Monocyte Enrichment Kit, StemCell).
(§2) On Day 0, the monocytes are incubated in a differentiation medium (Gibco Roswell Park Memorial Institute (RPMI), 10% v/v foetal bovine serum (FBS) that has been decomplemented (heated to 56° C. for 30 minutes), 50 ng/ml IL-4 and 100 ng/ml Recombinant Human Granulocyte Macrophage Colony-Stimulating Factor (GM-CSF)). On the 3rd day of culture, half of the medium is replaced by fresh medium. On day 6, the immature dendritic cells are characterised by flow cytometry and stimulated by a biofilm or membranes of C. acnes.
(§3) The membranes of C. acnes are purchased from the Icare laboratory (Saint-Beauzire, France).
(§4) The stimulation of the immature dendritic cells derived from monocytes by the membranes of C. acnes is carried out with a dilution to 1/20 of a solution of membranes in the culture medium (RPMI+10% v/v FBS) at a concentration of 0.15 mg/ml.
(§5) The myrtle extract used in this study is prepared according to example 1. This extract is solubilised and stored at […] in ethanol (10 mg of dry extract prepared according to example 1, in 1 ml of ethanol). […]

[2] = test system: production of IL-8 by dendritic cells derived from monocytes; experiment: Inhibition of IL-8 production by monocyte-derived dendritic cells stimulated with C. acnes membranes; settings: Homo sapiens, Dendritic cell; C. acnes phylotype IA1 membranes, 24 hours stimulation; dexamethasone 300 ng/ml, myrtle extract 10 μg/ml, Trip extract 25 μg/ml, combination 10 and 25 μg/ml; mean of 3 experiments
Description: as §1, §2, §3
The stimulation of the immature dendritic cells derived from monocytes by the membranes of C. acnes is carried out with a dilution to 1/20 of a solution of membranes in the culture medium (RPMI+10% v/v FBS) at a concentration of 0.15 mg/ml. […]
Several cytokines are evaluated in this study. IL-6, IL-8, IL-10, and IL-12p40; these cytokines are quantified in multiplex using the Luminex technology (Bioplex 200, Biorad).

[3] = test system: production of IL-10 by dendritic cells derived from monocytes; experiment: Inhibition of IL-10 production by monocyte-derived dendritic cells stimulated with C. acnes membranes; settings: Homo sapiens, Dendritic cell; C. acnes phylotype IA1 membranes, 24 hours stimulation; dexamethasone 300 ng/ml, myrtle extract 10 μg/ml, Trip extract 25 μg/ml, combination 10 and 25 μg/ml; mean of 3 experiments
Description: as §1, §2, §3, §4, §5

[4] = test system: production of IL-12p40 by dendritic cells derived from monocytes; experiment: Inhibition of IL-12p40 production by monocyte-derived dendritic cells stimulated with C. acnes membranes; settings: Homo sapiens, Dendritic cell; C. acnes phylotype IA1 membranes, 24 hours stimulation; dexamethasone 300 ng/ml, myrtle extract 10 μg/ml, Trip extract 25 μg/ml, combination 10 and 25 μg/ml; mean of 3 experiments
Description: as §1, §2, §3, §4, §5

[5] = test system: production of IL-10 by dendritic cells derived from monocytes; experiment: Inhibition of IL-10 production by monocyte-derived dendritic cells stimulated with biofilm of C. acnes; settings: Homo sapiens, Dendritic cell; biofilm of C. acnes phylotype IA1, MOI close to 100, 24 hours stimulation; dexamethasone 300 ng/ml, combination 10 and 25 μg/ml; mean of 3 experiments
Description: as §1, §2
The myrtle extract used in this study is prepared according to example 1. This extract is solubilised and stored at […] in ethanol (10 mg of dry extract prepared according to example 1, in 1 ml of ethanol). The concentration tested is 10 μg/ml.
The extract of Tripterygium wilfordii (Trip extract below) used in this study is prepared according to example 2.

SMILES: C[C@@H]1C[C@H]2[C@@H]3CCC4=CC(=O)C=C[C@]4(C)[C@@]3(F)[C@@H](O)C[C@]2(C)[C@@]1(O)C(=O)CO [Dexamethasone, dexamethasone]
- inhibition at 0.3 µg/mL [1]: 76.8%
- inhibition at 0.3 µg/mL [2]: 47.6%
- inhibition at 0.3 µg/mL [3]: 41.7%
- inhibition at 0.3 µg/mL [4]: 79.5%
- inhibition at 0.3 µg/mL [5]: 38.6%

— patent publication US20240165185A1, “COMBINATION OF A MYRTLE EXTRACT AND A TRIPTERYGIUM WILFORDII EXTRACT FOR COMBATING C. ACNES-INDUCED INFLAMMATION” (priority 2021, published 2024)
